In ChEMBL document CHEMBL1140955, “Synthesis and in vitro biological evaluation of valine-containing prodrugs derived from clinically used HIV-protease inhibitors” (Eur J Med Chem, 2008):

Legend:
[1] = system: Human immunodeficiency virus 1; assay: Antiviral activity against HIV1 LAI infected in human CEM-SS cells assessed as reverse transcriptase activity after 5 days by MTT assay; type: functional, organism-based; conditions: Human immunodeficiency virus 1, LAI, 120 h
[2] = system: Human immunodeficiency virus 1; assay: Antiviral activity against HIV1 3B infected in human MT4 cells assessed as reverse transcriptase activity after 5 days by MTT assay; conditions: Human immunodeficiency virus 1, 3B, MT4, 120 h
[3] = Apparent permeability from apical to basolateral side of human Caco-2 cells at 26.5 uM in donor chamber after 3 hrs; type: ADME, cell-based; conditions: read-out: permeability
[4] = Cytotoxicity against human MT4 cells after 4 days by MTT assay; type: cell-based
[5] = Chemical stability assessed as hydrolysis half life at pH 7.3; type: physicochemical; conditions: buffer
Caco-2 [6] = assay: Permeability from apical to basolateral side of human Caco-2 cells assessed as ratio of prodrug concentration in receiver to prodrug concentration in donor at 330 uM in donor chamber after 3 hrs; type: ADME, cell-based; conditions: caco-2, 3 h
[7] = Apparent permeability from basolateral to apical side of human Caco-2 cells at 26.5 uM in donor chamber after 3 hrs; type: ADME, cell-based; conditions: read-out: permeability
[8] = system: Human immunodeficiency virus 1; assay: Antiviral activity against HIV1 LAI infected in human CEM-SS cells assessed as ratio of IC50 for prodrug to IC50 for parent compound; type: functional
[9] = system: Human immunodeficiency virus 1; assay: Antiviral activity against HIV1 3B infected in human MT4 cells assessed as ratio of IC50 for prodrug to IC50 for parent compound
[10] = Cytotoxicity against human CEM-SS cells after 5 days by MTT assay; type: cell-based
Caco-2 [11] = assay: Permeability from apical to basolateral side of human Caco-2 cells assessed as ratio of prodrug concentration in receiver to prodrug concentration in donor at 177 uM in donor chamber after 3 hrs; type: ADME, cell-based; conditions: caco-2, 3 h
Caco-2 [12] = assay: Permeability from basolateral to apical side of human Caco-2 cells assessed as ratio of prodrug concentration in receiver to prodrug concentration in donor at 177 uM in donor chamber after 3 hrs; type: ADME, cell-based; conditions: caco-2, 3 h
Caco-2 [13] = assay: Permeability from basolateral to apical side of human Caco-2 cells assessed as ratio of prodrug concentration in receiver to prodrug concentration in donor at 330 uM in donor chamber after 3 hrs; type: ADME, cell-based; conditions: caco-2, 3 h
Caco-2 [14] = assay: Permeability from basolateral to apical side of human Caco-2 cells assessed as ratio of prodrug concentration in receiver to prodrug concentration in donor at 26.5 uM in donor chamber after 3 hrs; type: ADME, cell-based; conditions: caco-2, 3 h
Caco-2 [15] = assay: Permeability from apical to basolateral side of human Caco-2 cells assessed as ratio of prodrug concentration in receiver to prodrug concentration in donor at 26.5 uM in donor chamber after 3 hrs; type: ADME, cell-based; conditions: caco-2, 3 h
[16] = Apparent permeability from basolateral to apical side of human Caco-2 cells at 185 uM in donor chamber after 3 hrs; type: ADME, cell-based; conditions: read-out: permeability
Caco-2 [17] = assay: Permeability from basolateral to apical side of human Caco-2 cells assessed as ratio of prodrug concentration in receiver to prodrug concentration in donor at 185 uM in donor chamber after 3 hrs; type: ADME, cell-based; conditions: caco-2, 3 h
[18] = Apparent permeability from basolateral to apical side of human Caco-2 cells at 177 uM in donor chamber after 3 hrs; type: ADME, cell-based; conditions: read-out: permeability
[19] = Apparent permeability from apical to basolateral side of human Caco-2 cells at 177 uM in donor chamber after 3 hrs; type: ADME, cell-based; conditions: read-out: permeability
[20] = Apparent permeability from apical to basolateral side of human Caco-2 cells at 80 uM in donor chamber after 3 hrs; type: ADME, cell-based; conditions: read-out: permeability
[21] = Apparent permeability from basolateral to apical side of human Caco-2 cells at 80 uM in donor chamber after 3 hrs; type: ADME, cell-based; conditions: read-out: permeability
Caco-2 [22] = assay: Permeability from apical to basolateral side of human Caco-2 cells assessed as ratio of prodrug concentration in receiver to prodrug concentration in donor at 80 uM in donor chamber after 3 hrs; type: ADME, cell-based; conditions: caco-2, 3 h
Caco-2 [23] = assay: Permeability from basolateral to apical side of human Caco-2 cells assessed as ratio of prodrug concentration in receiver to prodrug concentration in donor at 80 uM in donor chamber after 3 hrs; type: ADME, cell-based; conditions: caco-2, 3 h
[24] = Apparent permeability from apical to basolateral side of human Caco-2 cells at 175 uM in donor chamber after 3 hrs; type: ADME, cell-based; conditions: read-out: permeability
[25] = Apparent permeability from basolateral to apical side of human Caco-2 cells at 175 uM in donor chamber after 3 hrs; type: ADME, cell-based; conditions: read-out: permeability

Compound	IC50 [1]	IC50 [2]	CC50 at 96 h [4]	half-life [5]	Ratio IC50 [8]	Ratio IC50 [9]	CC50 at 120 h [10]	Activity (Caco-2 [11])	Activity (Caco-2 [12])	further results
CC(C)[C@@H](N)C(=O)NCCCCCC(=O)O[C@H](CN1C[C@H]2CCCC[C@H]2C[C@H]1C(=O)NC(C)(C)C)[C@H](Cc1ccccc1)NC(=O)[C@H](CC(N)=O)NC(=O)c1ccc2ccccc2n1.O=C(O)C(F)(F)F.O=C(O)C(F)(F)F.O=C(O)C(F)(F)F	0.175 µM	0.34 µM	5.3 µM	60 h	19	19	9 µM	14%	14.6%	Papp A→B at 3 h, 26.5 µM [3]: 0.58 ×10⁻⁶ cm/s; Activity (Caco-2 [6]): 15.6%; Papp B→A at 3 h, 26.5 µM [7]: 1.87 ×10⁻⁶ cm/s; Activity (Caco-2 [13]): 18.1%; Activity (Caco-2 [14]): 4.8%; Activity (Caco-2 [15]): 2.2%
CC(C)[C@H](N)C(=O)NCCCCCC(=O)O[C@@H]1Cc2ccccc2[C@@H]1NC(=O)[C@H](Cc1ccccc1)C[C@H](O)CN1CCN(Cc2cccnc2)C[C@H]1C(=O)NC(C)(C)C.O=C(O)C(F)(F)F	0.036 µM	0.23 µM	47 µM	72 h	>=3.6	10	> 10 µM	–	–	Papp B→A at 3 h, 185 µM [16]: 2.92 ×10⁻⁶ cm/s; Activity (Caco-2 [17]): 9%
CC(C)[C@H](N)C(=O)O[C@@H](C[C@@H](Cc1ccccc1)C(=O)N[C@H]1c2ccccc2C[C@H]1O)CN1CCN(Cc2cccnc2)C[C@H]1C(=O)NC(C)(C)C.O=C(O)C(F)(F)F	0.09 µM	0.027 µM	100 µM	68 h	>=9	1	> 100 µM	14%	14.6%	Papp B→A at 3 h, 177 µM [18]: 7.08 ×10⁻⁶ cm/s; Papp A→B at 3 h, 177 µM [19]: 5.13 ×10⁻⁶ cm/s
Cc1c(OC(=O)CCCCCNC(=O)[C@@H](N)C(C)C)cccc1C(=O)N[C@@H](CSc1ccccc1)[C@@H](CN1C[C@H]2CCCC[C@H]2C[C@H]1C(=O)NC(C)(C)C)OC(=O)CCCCCNC(=O)[C@H](N)C(C)C.O=C(O)C(F)(F)F.O=C(O)C(F)(F)F	15.5 µM	–	4.8 µM	82 h	7750	–	5 µM	–	–	–
Cc1c(O)cccc1C(=O)N[C@@H](CSc1ccccc1)[C@H](O)CN1C[C@H]2CCCC[C@H]2C[C@H]1C(=O)NC(C)(C)C	0.002 µM	–	–	–	–	–	–	–	–	Papp A→B at 3 h, 80 µM [20]: 1.03 ×10⁻⁶ cm/s; Papp B→A at 3 h, 80 µM [21]: 2.51 ×10⁻⁶ cm/s; Activity (Caco-2 [22]): 2.7%; Activity (Caco-2 [23]): 6.3%
CC(C)(C)NC(=O)[C@@H]1CN(Cc2cccnc2)CCN1C[C@@H](O)C[C@@H](Cc1ccccc1)C(=O)N[C@H]1c2ccccc2C[C@H]1O.O=S(=O)(O)O [INDINAVIR SULFATE]	≤ 0.01 µM	0.022 µM	> 100 µM	–	–	–	> 100 µM	–	–	Papp A→B at 3 h, 175 µM [24]: 1.03 ×10⁻⁶ cm/s; Papp B→A at 3 h, 175 µM [25]: 15.5 ×10⁻⁶ cm/s
